Data: patent US8192962B2, “Processes for detecting toxic substances” (Daikin Industries, Ltd., priority 2001, dated 2012)

System: Metabolism protein genes
Test: DNA chip mRNA expression in yeast, metabolism protein genes (Table 7)
Type: cell-based, Saccharomyces cerevisiae S288C
Method in brief: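 Cells were grown at 25° C. in YPD, treated at logarithmic phase for 2 h with a chemical at a concentration inhibiting growth but not causing death, and compared with untreated cultures. Labeled cDNA was hybridized to a DNA chip carrying all yeast genes, and the expression ratio was taken from scanner fluorescence.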

Structure (SMILES): O=[N+]([O-])c1cc[n+]([O-])c2ccccc12 [(5), 4-nitroquinolin-N-oxide]
- The level of expressed mRNA in the presence of chemical substance/The level of expressed mRNA in the absence of chemical substance (yeast gene YJR148W): 0.6
- The level of expressed mRNA in the presence of chemical substance/The level of expressed mRNA in the absence of chemical substance (yeast gene YJR155W): 0.7
- The level of expressed mRNA in the presence of chemical substance/The level of expressed mRNA in the absence of chemical substance (yeast gene YKL035W): 0.8
- level of expressed mRNA in the presence/in the absence of chemical substance (yeast gene YKL060C): 1.6
- The level of expressed mRNA in the presence of chemical substance/The level of expressed mRNA in the absence of chemical substance (yeast gene YKL091C): 1.0
- The level of expressed mRNA in the presence of chemical substance/The level of expressed mRNA in the absence of chemical substance (yeast gene YKL104C): 1.4
- level of expressed mRNA in the presence/in the absence of chemical substance (yeast gene YKL148C): 0.8
- The level of expressed mRNA in the presence of chemical substance/The level of expressed mRNA in the absence of chemical substance (yeast gene YKL152C): 1.3
- level of expressed mRNA in the presence/in the absence of chemical substance (yeast gene YKL157W): 1.5
- The level of expressed mRNA in the presence of chemical substance/The level of expressed mRNA in the absence of chemical substance (yeast gene YKL213C): 0.7
- The level of expressed mRNA in the presence of chemical substance/The level of expressed mRNA in the absence of chemical substance (yeast gene YKL215C): 1.0
- level of expressed mRNA in the presence/in the absence of chemical substance (yeast gene YKR034W): 0.9
- The level of expressed mRNA in the presence of chemical substance/The level of expressed mRNA in the absence of chemical substance (yeast gene YKR039W): 1.0
- The level of expressed mRNA in the presence of chemical substance/The level of expressed mRNA in the absence of chemical substance (yeast gene YLL058W): 0.8
- level of expressed mRNA in the presence/in the absence of chemical substance (yeast gene YLR006C): 1.6
- level of expressed mRNA in the presence/in the absence of chemical substance (yeast gene YLR044C): 1.7
- level of expressed mRNA in the presence/in the absence of chemical substance (yeast gene YLR056W): 1.6
- level of expressed mRNA in the presence/in the absence of chemical substance (yeast gene YLR058C): 0.7
- level of expressed mRNA in the presence/in the absence of chemical substance (yeast gene YLR081W): 1.0
- level of expressed mRNA in the presence/in the absence of chemical substance (yeast gene YLR089C): 0.8
- The level of expressed mRNA in the presence of chemical substance/The level of expressed mRNA in the absence of chemical substance (yeast gene YLR180W): 0.8
- level of expressed mRNA in the presence/in the absence of chemical substance (yeast gene YLR284C): 1.6
- The level of expressed mRNA in the presence of chemical substance/The level of expressed mRNA in the absence of chemical substance (yeast gene YLR299W): 0.6
- The level of expressed mRNA in the presence of chemical substance/The level of expressed mRNA in the absence of chemical substance (yeast gene YLR300W): 0.8
- level of expressed mRNA in the presence/in the absence of chemical substance (yeast gene YLR304C): 0.6
- The level of expressed mRNA in the presence of chemical substance/The level of expressed mRNA in the absence of chemical substance (yeast gene YLR307W): 1.4
- The level of expressed mRNA in the presence of chemical substance/The level of expressed mRNA in the absence of chemical substance (yeast gene YLR348C): 0.9
- level of expressed mRNA in the presence/in the absence of chemical substance (yeast gene YLR354C): 1.6
- level of expressed mRNA in the presence/in the absence of chemical substance (yeast gene YLR372W): 1.4
- level of expressed mRNA in the presence/in the absence of chemical substance (yeast gene YML022W): 1.3
- The level of expressed mRNA in the presence of chemical substance/The level of expressed mRNA in the absence of chemical substance (yeast gene YML054C): 1.3
- The level of expressed mRNA in the presence of chemical substance/The level of expressed mRNA in the absence of chemical substance (yeast gene YML070W): 1.4
- The level of expressed mRNA in the presence of chemical substance/The level of expressed mRNA in the absence of chemical substance (yeast gene YML100W): 0.9
- The level of expressed mRNA in the presence of chemical substance/The level of expressed mRNA in the absence of chemical substance (yeast gene YMR008C): 1.1
- level of expressed mRNA in the presence/in the absence of chemical substance (yeast gene YMR011W): 0.9
- level of expressed mRNA in the presence/in the absence of chemical substance (yeast gene YMR015C): 1.7
- The level of expressed mRNA in the presence of chemical substance/The level of expressed mRNA in the absence of chemical substance (yeast gene YMR020W): 1.4
- level of expressed mRNA in the presence/in the absence of chemical substance (yeast gene YMR083W): 1.5
- The level of expressed mRNA in the presence of chemical substance/The level of expressed mRNA in the absence of chemical substance (yeast gene YMR105C): 0.9
- The level of expressed mRNA in the presence of chemical substance/The level of expressed mRNA in the absence of chemical substance (yeast gene YMR189W): 0.4
- level of expressed mRNA in the presence/in the absence of chemical substance (yeast gene YMR205C): 1.2
- level of expressed mRNA in the presence/in the absence of chemical substance (yeast gene YMR261C): 0.9
- The level of expressed mRNA in the presence of chemical substance/The level of expressed mRNA in the absence of chemical substance (yeast gene YMR271C): 1.1
- The level of expressed mRNA in the presence of chemical substance/The level of expressed mRNA in the absence of chemical substance (yeast gene YMR296C): 0.4
- level of expressed mRNA in the presence/in the absence of chemical substance (yeast gene YMR323W): 0.7
- The level of expressed mRNA in the presence of chemical substance/The level of expressed mRNA in the absence of chemical substance (yeast gene YNL012W): 1.3
- level of expressed mRNA in the presence/in the absence of chemical substance (yeast gene YNL025C): 0.7
- The level of expressed mRNA in the presence of chemical substance/The level of expressed mRNA in the absence of chemical substance (yeast gene YNL037C): 1.7
- The level of expressed mRNA in the presence of chemical substance/The level of expressed mRNA in the absence of chemical substance (yeast gene YNL045W): 1.1
- The level of expressed mRNA in the presence of chemical substance/The level of expressed mRNA in the absence of chemical substance (yeast gene YNL104C): 0.8
- The level of expressed mRNA in the presence of chemical substance/The level of expressed mRNA in the absence of chemical substance (yeast gene YNL106C): 0.8
- The level of expressed mRNA in the presence of chemical substance/The level of expressed mRNA in the absence of chemical substance (yeast gene YNL169C): 0.7
- level of expressed mRNA in the presence/in the absence of chemical substance (yeast gene YNL192W): 0.9
- The level of expressed mRNA in the presence of chemical substance/The level of expressed mRNA in the absence of chemical substance (yeast gene YNL231C): 2.1
- The level of expressed mRNA in the presence of chemical substance/The level of expressed mRNA in the absence of chemical substance (yeast gene YNL322C): 1.4
- The level of expressed mRNA in the presence of chemical substance/The level of expressed mRNA in the absence of chemical substance (yeast gene YNL331C): 1.6
- The level of expressed mRNA in the presence of chemical substance/The level of expressed mRNA in the absence of chemical substance (yeast gene YNL332W): 1.6
- The level of expressed mRNA in the presence of chemical substance/The level of expressed mRNA in the absence of chemical substance (yeast gene YNR002C): 1.2
- The level of expressed mRNA in the presence of chemical substance/The level of expressed mRNA in the absence of chemical substance (yeast gene YNR019W): 0.8
- The level of expressed mRNA in the presence of chemical substance/The level of expressed mRNA in the absence of chemical substance (yeast gene YNR033W): 1.3
- The level of expressed mRNA in the presence of chemical substance/The level of expressed mRNA in the absence of chemical substance (yeast gene YNR059W): 1.4
- The level of expressed mRNA in the presence of chemical substance/The level of expressed mRNA in the absence of chemical substance (yeast gene YOL058W): 1.2
- level of expressed mRNA in the presence/in the absence of chemical substance (yeast gene YOL086C): 1.9
- level of expressed mRNA in the presence/in the absence of chemical substance (yeast gene YOL108C): 2.1
- level of expressed mRNA in the presence/in the absence of chemical substance (yeast gene YOL116W): 1.7
- The level of expressed mRNA in the presence of chemical substance/The level of expressed mRNA in the absence of chemical substance (yeast gene YOL126C): 0.7
- The level of expressed mRNA in the presence of chemical substance/The level of expressed mRNA in the absence of chemical substance (yeast gene YOL153C): 1.2
- level of expressed mRNA in the presence/in the absence of chemical substance (yeast gene YOL156W): 1.2
- The level of expressed mRNA in the presence of chemical substance/The level of expressed mRNA in the absence of chemical substance (yeast gene YOL165C): 0.9
- level of expressed mRNA in the presence/in the absence of chemical substance (yeast gene YOR002W): 1.1
- level of expressed mRNA in the presence/in the absence of chemical substance (yeast gene YOR085W): 1.0
- The level of expressed mRNA in the presence of chemical substance/The level of expressed mRNA in the absence of chemical substance (yeast gene YOR099W): 1.5
- level of expressed mRNA in the presence/in the absence of chemical substance (yeast gene YOR103C): 1.5
- level of expressed mRNA in the presence/in the absence of chemical substance (yeast gene YOR108W): 1.1
- level of expressed mRNA in the presence/in the absence of chemical substance (yeast gene YOR128C): 1.1
- The level of expressed mRNA in the presence of chemical substance/The level of expressed mRNA in the absence of chemical substance (yeast gene YOR130C): 1.8
- level of expressed mRNA in the presence/in the absence of chemical substance (yeast gene YOR142W): 1.4
- level of expressed mRNA in the presence/in the absence of chemical substance (yeast gene YOR176W): 1.0
- level of expressed mRNA in the presence/in the absence of chemical substance (yeast gene YOR178C): 1.0
- level of expressed mRNA in the presence/in the absence of chemical substance (yeast gene YOR251C): 0.8
- The level of expressed mRNA in the presence of chemical substance/The level of expressed mRNA in the absence of chemical substance (yeast gene YOR336W): 1.3
- The level of expressed mRNA in the presence of chemical substance/The level of expressed mRNA in the absence of chemical substance (yeast gene YOR347C): 0.7
- level of expressed mRNA in the presence/in the absence of chemical substance (yeast gene YOR348C): 0.9
- The level of expressed mRNA in the presence of chemical substance/The level of expressed mRNA in the absence of chemical substance (yeast gene YPL017C): 1.3
- level of expressed mRNA in the presence/in the absence of chemical substance (yeast gene YPL028W): 1.0
- level of expressed mRNA in the presence/in the absence of chemical substance (yeast gene YPL057C): 1.9
- level of expressed mRNA in the presence/in the absence of chemical substance (yeast gene YPL135W): 1.6
- level of expressed mRNA in the presence/in the absence of chemical substance (yeast gene YPL148C): 1.1
- The level of expressed mRNA in the presence of chemical substance/The level of expressed mRNA in the absence of chemical substance (yeast gene YPR026W): 0.8
- level of expressed mRNA in the presence/in the absence of chemical substance (yeast gene YPR113W): 2.0
- level of expressed mRNA in the presence/in the absence of chemical substance (yeast gene YPR165W): 1.5
- The level of expressed mRNA in the presence of chemical substance/The level of expressed mRNA in the absence of chemical substance (yeast gene YPR167C): 1.4
- level of expressed mRNA in the presence/in the absence of chemical substance (yeast gene YPR183W): 0.9
